# Tests used:
# [1] = system: OMM1 uveal melanoma cells; test: Mitochondrial membrane potential by TMRE staining; type: cell-based, human; details: OMM1; ABT-263 3 μM or 5 μM, 48 h
# Experimental: (§1) FIG. 1. ABT-263 induces apoptosis of uveal melanoma cells. Detection of the mitochondrial membrane potential using TMRE staining in Mel270 and OMM1 uveal melanoma cells exposed to ABT-263 3 μM or 5 μM for 48 h in the absence or presence of QVD-OPh 20 μM.
# [2] = system: Mel270 uveal melanoma cells; test: Mitochondrial membrane potential by TMRE staining; type: cell-based, human; details: Mel270; ABT-263 3 μM or 5 μM, 48 h
# Experimental: as §1
# [3] = Body weight and blood biochemical analysis of xenografted mice; type: in vivo
# Experimental: (§2) FIG. 3. ABT-263 reduces tumor growth in vivo. (A) Primary 92.1 uveal melanoma cells were subcutaneously engrafted into athymic nude mice. Once the tumours reached 100 mm3, mice were treated daily with ABT-263. The arrow indicates the start of the treatment. The growth tumor curves were determined by measuring the tumor volume using the equation V=(L Å˜W2)/2. […] (B) Sub-cutaneous tumor weight from control (Ct) and ABT-263-treated mice is shown. (C) Blood biochemical analysis of mice xenografted with OMM1 cells. Serum activity of alanine transaminase (ALT) and aspartate transaminase (AST) was measured in control and ABT-263 by spectrophotometric methods after the end of treatment. Data are presented as mean±SD (n=5 per group). Animal experiments were performed in accordance with French law and approved by a local institutional ethical committee. The animals were maintained in a temperature-controlled facility (22° C.) on a 12-h light/dark cycle and provided free access to food (standard laboratory chow diet from UAR, Epinay-S/Orge, France). Human Mel270 uvealmelanoma cells were subcutaneously inoculated into 8-week-old female, immune-deficient, athymic, nude FOXN1nu mice (Harlan Laboratory). When the tumors became palpable (0.1-0.2 cm3), the mice received an intraperitoneal injection of ABT-263 (50 mg/kg), dissolved in 10% DMSO 6 times per week. Control mice were injected with DMSO alone. The growth tumor curves were determined after measuring the tumor volume using the equation V=(L×W2)/2. At the end of the experiment, the mice were euthanized by cervical dislocation.
# [4] = system: ER stress molecules in Mel270 cells; test: Western blot of ER stress molecules; type: cell-based, human
# Experimental: Western blot of ER stress molecules in Mel270 cells treated with ABT-263 5 μM in the absence or presence of QVD-OPh 20 μM. Representative western blot are shown.
# (§3) Western blotting was performed as previously described 25,26. Briefly, cell lysates (30 μg) were separated using SDS-PAGE, transferred onto a PVDF membrane and subsequently exposed to the appropriate antibodies, anti-BCL2 (ms-123-PO) was from neomarker, anti-caspase 3 (#610323) was from BD, anti-BAX (#8429) was from sigma, anti-PARP (#9542), anti-BCL-XL (#2762), anti-caspase 9 (#9502) and anti-PUMA (#4976) were from Cell Signaling Technology Inc, anti-MCL1 (#sc-819), anti-NOXA (#56169), and anti-HSP90 (#sc-13119) were from Santa Cruz biotechnology. The proteins were visualized using the ECL system (Amersham).
# [5] = system: 92.1 uveal melanoma cells xenografts; test: Subcutaneous tumor xenograft; type: in vivo, athymic nude mice; details: 92.1 xenografts
# Experimental: as §2, with “When the tumors became palpable (0.1-0.2 cm3), the mice received an intraperitoneal injection of ABT-263 (50 mg/kg), dissolved in 10% DMSO 6 times per week. Control mice were injected with DMSO alone.” left out, “At the end of the experiment, the mice were euthanized by cervical dislocation.” left out
# [6] = system: ER stress molecules in metastatic human uveal melanoma cells; test: Western blot of ER stress molecules; type: cell-based
# Experimental: as §3, with “(Amersham). The western blots shown are representative of at least 3 independent experiments.” for “(Amersham).”
# Mel270 cells = test: Cell death / alive cells by Annexin V/DAPI FACS; type: cell-based, human
# Experimental: FIG. 5: PERK dampens ABT-263 killing activity. (A) Q-PCR analysis of PERK level in Mel270 uveal melanoma cells treated with control (siCtl) or PERK (siPERK) siRNA for 48 hr. (B) Mel270 cells were treated with control (siCtl) or PERK (siPERK) siRNA for 48 hrs before being exposed to ABT-263 3 μM for 48 hr. FACS analyses of Annexin V/DAPI double staining in […] indicate alive (white) or dead (early, late apoptosis and necrosis in light grey) cells. (C) Mel270 cells were treated with ABT-263 5 μM or GSK2606414 5 μM alone or in combination for 48 h.
# Cells were seeded at a density of 100 000 cells/well, in 6-well plate and treated with ABT-263 for indicated time. Cells were harvested using accutase enzyme, washed twice with ice-cold phosphate-buffered saline, resuspended in a buffer (Hepes 250 mM, NaCl 150 mM, KCl 5 mM, MgCl2 2 mM, CaCl2) 2 mM) with DAPI (1 μg/ml) and Annexin V-Alexa Fluor 647 conjugate (1/100) and incubated for 15 minutes at room temperature (25° C.) in the dark. Samples were immediately analyzed by a flow cytometer (MACS QUANT) using a laser at 405 nm excitation with a bandpass filter at 425 nm and 475 nm for DAPI detection and a laser at 635 nm excitation with a bandpass filter at 650 nm and 665 nm for Alexa Fluor 647 dye. Annexin and DAPI mono- or double positive cells were counted as dead cells.
# [7] = OMM1-xenografted mice, after end of treatment
smiles,measurement,setting,value
"CC1(C)CCC(c2ccc(Cl)cc2)=C(CN2CCN(c3ccc(C(=O)NS(=O)(=O)c4ccc(N[C@H](CCN5CCOCC5)CSc5ccccc5)c(S(=O)(=O)C(F)(F)F)c4)cc3)CC2)C1 [ABT-263, 4-[4-[[2-(4-chlorophenyl)-5,5-dimethyl-1-cyclohexen-1-yl]methyl]-1-piperazinyl]-N-[[4-[[(1R)-3-(4-morpholinyl)-1-[(phenylthio)methyl]propyl]amino]-3-[(trifluoromethyl)sulfonyl]phenyl]sulfonyl]-benzamide]",mitochondrial membrane potential ΔΨm,[1],dose-dependently reduced
same,mitochondrial membrane potential ΔΨm,[2],dose-dependently reduced
same,serum alanine transaminase (ALT) versus vehicle,[3]; [7],no significant differences
same,serum aspartate transaminase (AST) versus vehicle,[3]; [7],no significant differences
same,hepatotoxicity,[3]; in vivo conditions,no hepatotoxicity
same,body weight versus vehicle,"[3]; xenografted mice, data not shown",no significant differences
same,ATF4 and CHOP level,[4]; Mel270 cells,enhanced
same,"ER stress pathways (BIP, PERK, EIF2α, ATF4, IRE1α, XBP1, ATF6, CHOP)",[4]; kinetics analysis in Mel270,activates all branches of the ER stress pathways
same,tumor growth,[5],almost no effect
same,PERK and IRE1α phosphorylation,[6]; metastatic cell lines,did not detect
same,induction of ATF4 and CHOP,[6]; metastatic cells,hardly detectable
same,cell death,Mel270 cells; ABT-263 3 μM,do not induce cell death
same,"PARP cleavage and alive cell percentage, used alone",Mel270 cells; ABT-263 3 μM 48 hr,relative low effect
same,ABT-263 effect on viable cells combined with GSK2606414,"Mel270 cells; ABT-263 5 μM + GSK2606414 5 μM, 48 h",improved
same,ABT-263 effects and killing efficacy combined with PERK siRNA,Mel270 cells; siPERK 48 hrs then ABT-263 3 μM 48 hr,significantly improved

# — patent US20240122938A1, “METHODS AND COMPOSITIONS FOR TREATING UVEAL MELANOMA” (INSERM (INSTITUT NATIONAL DE LA SANTÉ ET DE LA RECHERCHE …, priority 2019, published 2024)
